Measured values reported in patent US8445505B2 (IRM LLC, priority 2008, dated 2013).

Biological target: IGF1R Ba/F3 (Homo sapiens, UniProt P08069)
Experiment: Ba/F3 Cell Viability Inhibition Assay (Tel-TK transformed Ba/F3 lines)
Assay type: cell-based, murine
Set-up: the printed alternative
Conditions: Tel-TK (IGF1R) transformed Ba/F3 cells, 48 hours incubation, cell viability (Britelite luminescence)
From the text: Ba/F3 is a murine IL-3-dependent pro-B lymphoma cell line. Parental Ba/F3 cells are used to generate a panel of sublines whose proliferation and survival is rendered IL-3-independent by stable transduction with individual tyrosine kinases activated by fusion with the amino-terminal portion of TEL (amino acid 1-375) or BCR. In order to generate Ba/F3 cell lines transformed by Tel-Tyrosine Kinase (TK) fusions, parental Ba/F3 cells are infected with a retrovirus harboring each TEL-fusion kinase and subjected to puromycin selection and IL-3 withdrawal to obtain IL-3-independent, transformed Ba/F3 cells.
Each transformed Ba/F3 cells are cultured in RPMI-1640 media (Gibco Cat #11875093, Carlsbad, Calif.) supplemented with 10% FBS (Hyclone Cat #SV30014.03, Logan, Utah), 4.5 g/L glucose (Sigma #G5400, St.Louis, Mo.), 1.5 g/L sodium bicarbonate (Biowhittaker #17-613E, Walkersville, Md.) and Pen/Strep (Gibco #10378-016, Carlsbad, Calif.). Cells are splitted twice weekly.
The potency of test compounds against various Tel-TK transformed Ba/F3 lines is determined as follows. Exponentially growing BaF3 Tel-TK cells are diluted in fresh medium to 75,000 cells/mL and seeded into 384-well plates (3750 cells/well) at 50 μL/well using a gill liquid dispenser (BioTek, Winooski, Vt., USA). Duplicate plates are run for each cell line. Test and control compounds are serially diluted with DMSO and arrayed in a polypropylene 384-well plate. 50 nL of compound is transferred into the assay plates using a pin-transfer device, and the plates are incubated at 37° C. (5% CO2) for 48 hours. 25 μL Britelite (Perkin Elmer) is added and luminescence is quantified using Analyst GT (Molecular Devices). Custom curve-fitting software is used to produce a logistic fit of percent cell viability as a function of the logarithm of inhibitor concentration. The IC50 is interpolated as the concentration of compound needed to reduce cell viability to 50% of a DMSO control. Parental Ba/F3 cells that are maintained and cultured in presence of IL-3 (1 ng/ml in final) are diluted in fresh medium containing IL-3 (1 ng/ml in final) to 75,000 cells/mL following the same procedure as described above.

Sequence of IGF1R Ba/F3 (P08069 999-1274 limits assumed): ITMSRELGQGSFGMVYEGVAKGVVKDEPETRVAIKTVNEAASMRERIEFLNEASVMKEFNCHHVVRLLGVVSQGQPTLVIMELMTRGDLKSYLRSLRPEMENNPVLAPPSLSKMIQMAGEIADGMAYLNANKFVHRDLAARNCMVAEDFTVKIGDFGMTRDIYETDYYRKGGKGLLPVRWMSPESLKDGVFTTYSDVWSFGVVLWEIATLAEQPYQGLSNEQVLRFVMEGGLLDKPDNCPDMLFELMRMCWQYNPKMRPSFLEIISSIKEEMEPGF

| Compound | IC50 [nM] |
| --- | --- |
| Cc1cc(Nc2nc(Nc3cc(C)c(-c4cnn(C)c4)cc3F)ncc2Cl)n[nH]1 [Compound 1, 5-chloro-N2-(2-fluoro-5-methyl-4-(1-methyl-1H-pyrazol-4-yl)phenyl)-N4-(5-methyl-1H-pyrazol-3-yl)pyrimidine-2,4-diamine] | 67 |
| Cc1cc(Nc2nc(Nc3cc(C)c(-c4ccncc4)cc3F)ncc2Cl)n[nH]1 [Compound 2, 5-chloro-N2-(2-fluoro-5-methyl-4-(pyridin-4-yl)phenyl)-N4-(5-methyl-1H-pyrazol-3-yl)pyrimidine-2,4-diamine] | 103 |
| Cc1cc(Nc2nc(Nc3cc(C)c(-c4cccnc4)cc3F)ncc2Cl)n[nH]1 [Compound 3, 5-chloro-N2-(2-fluoro-5-methyl-4-(pyridin-3-yl)phenyl)-N4-(5-methyl-1H-pyrazol-3-yl)pyrimidine-2,4-diamine] | 67 |
| CNC(=O)c1ccc(-c2cc(F)c(Nc3ncc(Cl)c(Nc4cc(C)[nH]n4)n3)cc2C)cn1 [Compound 4, 5-(4-(5-chloro-4-(5-methyl-1H-pyrazol-3-ylamino)pyrimidin-2-ylamino)-5-fluoro-2-methylphenyl)-N-methylpicolinamide] | 89 |
| Cc1ccc(-c2cc(F)c(Nc3ncc(Cl)c(Nc4cc(C)[nH]n4)n3)cc2C)cn1 [Compound 5, 5-chloro-N2-(2-fluoro-5-methyl-4-(6-methylpyridin-3-yl)phenyl)-N4-(5-methyl-1H-pyrazol-3-yl)pyrimidine-2,4-diamine] | 137 |
| Cc1cc(Nc2nc(Nc3cc(C)c(-c4ccccn4)cc3F)ncc2Cl)n[nH]1 [Compound 6, 5-chloro-N2-(2-fluoro-5-methyl-4-(pyridin-2-yl)phenyl)-N4-(5-methyl-1H-pyrazol-3-yl)pyrimidine-2,4-diamine] | 294 |
| Cc1cc(Nc2nc(Nc3cc(C)c(-c4cnc5ccccc5c4)cc3F)ncc2Cl)n[nH]1 [Compound 7, 5-chloro-N2-(2-fluoro-5-methyl-4-(quinolin-3-yl)phenyl)-N4-(5-methyl-1H-pyrazol-3-yl)pyrimidine-2,4-diamine] | 579 |
| Cc1cc(Nc2nc(Nc3cc(C)c(-c4ccc(O)nc4)cc3F)ncc2Cl)n[nH]1 [Compound 8, 5-(4-(5-chloro-4-(5-methyl-1H-pyrazol-3-ylamino)pyrimidin-2-ylamino)-5-fluoro-2-methylphenyl)pyridin-2-ol] | 55 |
| Cc1cc(-c2cc(F)c(Nc3ncc(Cl)c(Nc4cc(C)[nH]n4)n3)cc2C)ccn1 [Compound 9, 5-chloro-N2-(2-fluoro-5-methyl-4-(2-methylpyridin-4-yl)phenyl)-N4-(5-methyl-1H-pyrazol-3-yl)pyrimidine-2,4-diamine] | 94 |
| Cc1cc(Nc2nc(Nc3cc(C)c(-c4ccsc4)cc3F)ncc2Cl)n[nH]1 [Compound 10, 5-chloro-N2-(2-fluoro-5-methyl-4-(thiophen-3-yl)phenyl)-N4-(5-methyl-1H-pyrazol-3-yl)pyrimidine-2,4-diamine] | 833 |
| Cc1cc(Nc2nc(Nc3cc(C)c(-c4ccoc4)cc3F)ncc2Cl)n[nH]1 [Compound 11, 5-chloro-N2-(2-fluoro-4-(furan-3-yl)-5-methylphenyl)-N4-(5-methyl-1H-pyrazol-3-yl)pyrimidine-2,4-diamine] | 683 |
| Cc1cc(Nc2nc(Nc3cc(C)c(-c4cnn(C)c4)cc3C)ncc2Cl)n[nH]1 [Compound 12, 5-chloro-N2-(2,5-dimethyl-4-(1-methyl-1H-pyrazol-4-yl)phenyl)-N4-(5-methyl-1H-pyrazol-3-yl)pyrimidine-2,4-diamine] | 25 |
| CNC(=O)c1ccc(-c2cc(C)c(Nc3ncc(Cl)c(Nc4cc(C)[nH]n4)n3)cc2C)cn1 [Compound 14, 5-(4-(5-chloro-4-(5-methyl-1H-pyrazol-3-ylamino)pyrimidin-2-ylamino)-2,5-dimethylphenyl)-N-methylpicolinamide] | 15 |
| Cc1cc(-c2cc(C)c(Nc3ncc(Cl)c(Nc4cc(C)[nH]n4)n3)cc2C)ccn1 [Compound 15, 5-chloro-N2-(2,5-dimethyl-4-(2-methylpyridin-4-yl)phenyl)-N4-(5-methyl-1H-pyrazol-3-yl)pyrimidine-2,4-diamine] | 39 |
| Cc1ccc(-c2cc(C)c(Nc3ncc(Cl)c(Nc4cc(C)[nH]n4)n3)cc2C)cn1 [Compound 16, 5-chloro-N2-(2,5-dimethyl-4-(6-methylpyridin-3-yl)phenyl)-N4-(5-methyl-1H-pyrazol-3-yl)pyrimidine-2,4-diamine] | 30 |
| Cc1cc(Nc2nc(Nc3cc(C)c(-c4ncc[nH]4)cc3C)ncc2Cl)n[nH]1 [Compound 17, N2-(4-(1H-imidazol-2-yl)-2,5-dimethylphenyl)-5-chloro-N4-(5-methyl-1H-pyrazol-3-yl)pyrimidine-2,4-diamine] | 68 |
| Cc1cc(-c2cc(C)c(Nc3ncc(Cl)c(Nc4cc(C)[nH]n4)n3)cc2C)on1 [Compound 18, 5-chloro-N2-(2,5-dimethyl-4-(3-methylisoxazol-5-yl)phenyl)-N4-(5-methyl-1H-pyrazol-3-yl)pyrimidine-2,4-diamine] | 276 |
| Cc1cc(Nc2nc(Nc3cc(C)c(-c4ncc[nH]4)cc3F)ncc2Cl)n[nH]1 [Compound 19, 5-chloro-N2-(2-fluoro-4-(1H-imidazol-2-yl)-5-methylphenyl)-N4-(5-methyl-1H-pyrazol-3-yl)pyrimidine-2,4-diamine] | 288 |
| Cc1cc(Nc2nc(Nc3cc(C)c(-c4cnco4)cc3C)ncc2Cl)n[nH]1 [Compound 20, 5-chloro-N2-(2,5-dimethyl-4-(oxazol-5-yl)phenyl)-N4-(5-methyl-1H-pyrazol-3-yl)pyrimidine-2,4-diamine] | 109 |
| COc1cc(-c2cnco2)c(C)cc1Nc1ncc(Cl)c(Nc2cc(C)[nH]n2)n1 [Compound 21, 5-chloro-N2-(2-methoxy-5-methyl-4-(oxazol-5-yl)phenyl)-N4-(5-methyl-1H-pyrazol-3-yl)pyrimidine-2,4-diamine] | 169 |
| Cc1cc(-c2cc(C)c(Nc3ncc(Cl)c(Nc4cc(C)[nH]n4)n3)cc2C)[nH]n1 [Compound 22, 5-chloro-N2-(2,5-dimethyl-4-(3-methyl-1H-pyrazol-5-yl)phenyl)-N4-(5-methyl-1H-pyrazol-3-yl)pyrimidine-2,4-diamine] | 166 |
| Cc1cc(Nc2nc(Nc3cc(C)c(-c4csc(C)n4)cc3C)ncc2Cl)n[nH]1 [Compound 24, 5-chloro-N2-(2,5-dimethyl-4-(2-methylthiazol-4-yl)phenyl)-N4-(5-methyl-1H-pyrazol-3-yl)pyrimidine-2,4-diamine] | 106 |
| Cc1cc(Nc2nc(Nc3cc(C)c(-c4nccn4C)cc3C)ncc2Cl)n[nH]1 [Compound 25, 5-chloro-N2-(2,5-dimethyl-4-(1-methyl-1H-imidazol-2-yl)phenyl)-N4-(5-methyl-1H-pyrazol-3-yl)pyrimidine-2,4-diamine] | 71 |
| Cc1cc(Nc2nc(Nc3cc(F)c(-c4cnn(C)c4)cc3C)ncc2Cl)n[nH]1 [Compound 27, 5-chloro-N2-(5-fluoro-2-methyl-4-(1-methyl-1H-pyrazol-4-yl)phenyl)-N4-(5-methyl-1H-pyrazol-3-yl)pyrimidine-2,4-diamine] | 549 |
| C/C(=N\OCCO)c1cc(C)c(Nc2ncc(Cl)c(Nc3cc(C)[nH]n3)n2)cc1C [Compound 28, 1-(4-(5-chloro-4-(5-methyl-1H-pyrazol-3-ylamino)pyrimidin-2-ylamino)-2,5-dimethylphenyl)ethanone O-2-hydroxyethyloxime] | 141 |
